In article PMC9780888, “4-Isobutylmethcathinone—A Novel Synthetic Cathinone with High In Vitro Cytotoxicity and Strong Receptor Binding Preference of Enantiomers” (Pharmaceuticals, 2022):
Structures can show the parent of a compound that is named as a salt.

Tests used:
Assay type in all cases: cell-based, human
5637 = assay: WST-1 viability assay, 5637 cells; settings: 5637, 72 h incubation, WST-1, four replicates
Procedure: (§1) Based on the novelty of the IMBcat compound, we aimed to evaluate its in vitro cytotoxicity in selected model cell lines as well as to determine the toxicity of the IBMcat enantiomers, since both the chemical structure and chirality of compounds could play a role in their bioactivity (Table 2). The cytotoxic profile of the IBMcat was determined by a WST-1 viability assay after 72-h treatment. For this purpose, cell lines derived from distinct tissues, often affected by NPSs, were chosen, i.e., cells of kidney, hepatic, neural, urinary, and intestinal origin as well as keratinocytes and primary fibroblasts (HEK 293T, Hep G2, HMC-3, SH-SY5Y, 5637, CaCo-2, HaCaT, MRC-5, and BJ, respectively). The cytotoxicity of IBMcat and its enantiomers was concentration- and cell-line dependent, the IC50 values, which were in the micromolar range, are given in Table 2. […] This was followed by embryonic kidney cells HEK 293T (immortalized), in which the toxicity ranged between a concentration of 123 and 192 µM.
(§2) In this study, the following cell lines were used: HEK 293T, Hep G2, HMC-3, SH-SY5Y, 5637, CaCo-2, HaCaT, MRC-5, BJ, and L929. […] The selected cell lines were chosen so that not only primary noncancerous cells are evaluated but also cells derived from tissues, which are the most often affected by novel synthetic drugs, i.e., kidney, liver, urinary bladder, and nervous tissue. […]
(§3) The cytotoxicity of IBMCat was evaluated in vitro by using a WST-1 viability assay (Sigma-Aldrich, Saint Louis, MO, USA) based on the transformation of a tetrazolium salt into colored formazan in metabolically active cells. […] After 72 h of additional incubation of the cells, their viability was determined by WST-1. […] The cells were incubated for 2 h, after which absorbance of the raised formazan was measured spectrophotometrically at 450 nm (reference wavelength of 630 nm) using a UV-Vis spectrometer (Bio-Rad Laboratories, Hercules, CA, USA). […] The half-maximal inhibitory concentrations (IC50) were calculated from the measured dose–response curves by AAT Bioquest.

HaCaT = assay: WST-1 viability assay, HaCaT cells; settings: 72 h incubation, WST-1, four replicates
Procedure: as §1, §2, §3

MRC-5 = assay: WST-1 viability assay, MRC-5 cells; settings: MRC-5, 72 h incubation, WST-1, four replicates
Procedure: as §1, §2, §3

SH-SY5Y = assay: WST-1 viability assay, SH-SY5Y cells; settings: 72 h incubation, WST-1, four replicates
Procedure: as §1, §2, §3

Q: Which results are given for CNC(C)C(=O)c1ccc(CC(C)C)cc1.Cl (stereo not drawn) [IBMcat, 4-isobutylmethcathinone hydrochloride]?
A: IC50 (5637; Homo sapiens): 18 ± 1 µM; IC50 (HaCaT; Homo sapiens): 357 ± 40 µM; IC50 (MRC-5; Homo sapiens, MRC5): 635 ± 17 µM; IC50 (SH-SY5Y; Homo sapiens): 44 ± 5 µM

Q: How did the IC50 (5637; Homo sapiens) turn out when CN[C@@H](C)C(=O)c1ccc(CC(C)C)cc1 [S-IBMCat, (S)-4-isobutylmethcathinone hydrochloride] was run?
A: The IC50 was 21 ± 4 µM.

Q: And the IC50 (HaCaT; Homo sapiens)?
A: Its IC50 is 361 ± 22 µM.

Q: And the IC50 (MRC-5; Homo sapiens, MRC5)?
A: The IC50 was 530 ± 35 µM.

Q: What about the IC50 (SH-SY5Y; Homo sapiens) of the same compound?
A: The IC50 was 50 ± 1 µM.

Q: How did the IC50 5637 turn out when CN[C@H](C)C(=O)c1ccc(CC(C)C)cc1 [R-IBMCat] was run?
A: Its IC50 is 20 ± 1 µM.

Q: And the IC50 (HaCaT)?
A: Its IC50 is 329 ± 43 µM.

Q: What about the IC50 (MRC-5) of the same compound?
A: The IC50 was 515 ± 34 µM.

Q: What about the IC50 (SH-SY5Y) of the same compound?
A: The IC50 was 52 ± 4 µM.
